This note sets out measurements from patent publication US8344027B2, “4-dimethylaminobutyric acid derivatives” (Hoffmann-La Roche Inc., priority 2008, dated 2013).

pIC50: −log10 of the molar value.

In experiment [1] the target is T1, hL-CPT1 (Homo sapiens, UniProt P50416).
T1 construct: made in house; host or cells: Pichia pastoris strain X-33
T1 sequence (P50416 1-773): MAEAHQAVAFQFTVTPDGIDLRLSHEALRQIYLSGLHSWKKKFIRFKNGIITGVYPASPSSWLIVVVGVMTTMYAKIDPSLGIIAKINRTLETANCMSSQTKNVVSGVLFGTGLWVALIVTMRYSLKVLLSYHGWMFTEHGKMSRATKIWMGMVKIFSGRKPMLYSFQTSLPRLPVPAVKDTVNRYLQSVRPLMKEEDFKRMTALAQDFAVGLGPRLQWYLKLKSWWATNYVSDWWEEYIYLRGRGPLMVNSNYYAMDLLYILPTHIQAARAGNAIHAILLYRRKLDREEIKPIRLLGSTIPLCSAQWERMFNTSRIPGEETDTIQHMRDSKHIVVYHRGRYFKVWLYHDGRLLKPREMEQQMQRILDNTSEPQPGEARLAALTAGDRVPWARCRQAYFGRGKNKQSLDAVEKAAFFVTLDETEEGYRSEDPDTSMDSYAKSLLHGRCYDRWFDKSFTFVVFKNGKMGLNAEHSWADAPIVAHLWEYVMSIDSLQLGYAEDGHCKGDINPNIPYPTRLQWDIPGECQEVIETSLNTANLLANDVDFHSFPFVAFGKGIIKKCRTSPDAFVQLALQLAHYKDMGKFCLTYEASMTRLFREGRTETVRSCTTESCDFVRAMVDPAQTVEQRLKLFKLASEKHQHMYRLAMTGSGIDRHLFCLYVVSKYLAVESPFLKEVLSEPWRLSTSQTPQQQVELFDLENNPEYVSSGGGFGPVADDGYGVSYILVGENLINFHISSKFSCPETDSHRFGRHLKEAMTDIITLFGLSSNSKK
Kind of experiment: liver CPT1 inhibition, spectrophotometric DTNB (Ellman's reagent) assay. Conditions: human liver CPT1 expressed in P. pastoris, cell extract; carnitine 500 μM, palmitoyl-CoA 80 μM, DTNB 300 μM. Format: biochemical. The method, then: (§1) The following tests were carried out in order to determine the activity of the compounds of the present invention. Background information on the performed assays can be found in: Jackson et al., 1999, Biochem. J. 341, 483-489 and Jackson et al., 2000, J. Biol. Chem. 275, 19560-19566.
(§2) Human and rat CPT2- and liver CPT1 cDNAs, and human muscle CPT1 cDNA were subcloned in pGAPZB or pGAPZA, respectively. These plasmids were used to transform P. pastoris strain X-33 via electroporation after the preparation of electrocompetent cells. High copy number clones were selected where necessary using 0.5 or 1 mg/ml Zeocin. Cultures for activity measurements were induced for 16 h in YPD medium (1% yeast extract, 2% peptone, 2% glucose). Crude cell extracts were prepared by disrupting the cells with glass beads or French Press, depending on fermenter sizes. After centrifugation, the cell-free extracts were resuspended in cell breaking buffer (50 mM Tris, pH7.4, 100 mM KCl, 1 mM EDTA) in the presence of a protease inhibitor cocktail, before aliquoting and freezing at −20° C.
(§3) CPT activity was measured using a spectrophotometric assay using 5,5′-dithio-bis-(2-nitrobenzoic acid) (DTNB) also called Ellman's reagent. The HS-CoA released on the formation of acylcarnitine from carnitine (500 μM) and palmitoyl-CoA (80 μM) reduced DTNB (300 μM) forming 5-mercapto-2-nitrobenzoic acid which absorbed at 410 nm with a molar extinction coefficient of 13600 M^−1cm^−1. The assay buffer contained 120 mM KCl, 25 mM Tris, pH 7.4, 1 mM EDTA. This assay was used for the identification of CPT inhibitors, particularly/preferentially CPT2-selective inhibitors, versus the liver and muscle CPT1 isoforms.

Experiment [2] concerns the target T2, hCPT2 (Homo sapiens, UniProt P23786).
T2 construct: made in house; host or cells: Pichia pastoris strain X-33
T2 sequence (P23786 26-658): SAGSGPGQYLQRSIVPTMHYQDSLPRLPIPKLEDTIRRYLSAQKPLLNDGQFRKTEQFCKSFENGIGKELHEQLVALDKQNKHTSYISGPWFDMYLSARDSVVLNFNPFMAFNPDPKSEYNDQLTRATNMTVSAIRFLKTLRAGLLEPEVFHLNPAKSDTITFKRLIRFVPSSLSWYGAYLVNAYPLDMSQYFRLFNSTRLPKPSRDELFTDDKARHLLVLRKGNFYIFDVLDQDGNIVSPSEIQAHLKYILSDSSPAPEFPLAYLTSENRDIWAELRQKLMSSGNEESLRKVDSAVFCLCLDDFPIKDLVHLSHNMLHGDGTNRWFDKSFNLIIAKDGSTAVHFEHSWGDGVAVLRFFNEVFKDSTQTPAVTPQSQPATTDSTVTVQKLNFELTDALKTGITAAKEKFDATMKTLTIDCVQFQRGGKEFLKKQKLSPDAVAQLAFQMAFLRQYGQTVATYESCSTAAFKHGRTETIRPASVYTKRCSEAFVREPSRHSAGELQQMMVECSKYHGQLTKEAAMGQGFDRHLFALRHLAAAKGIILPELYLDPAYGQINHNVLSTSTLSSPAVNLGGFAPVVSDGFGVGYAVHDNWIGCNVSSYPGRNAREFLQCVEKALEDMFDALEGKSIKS
The experiment in a line: CPT2 inhibition, spectrophotometric DTNB (Ellman's reagent) assay. The following applies: human CPT2 expressed in P. pastoris, cell extract; carnitine 500 μM, palmitoyl-CoA 80 μM, DTNB 300 μM. It counts as biochemical. The method, then: as §1, §2, §3
Background: DTNB colorimetry detects thiols as they appear.

As for `CN(C)C[C@@H](CC(=O)O)NC(=O)CCCCCCCCCc1cccc(F)c1` [Example 41, (R)-4-Dimethylamino-3-[10-(3-fluoro-phenyl)-decanoylamino]-butyric acid], the values for the pIC50 in experiment [1] and in experiment [2] were 5.11 and 7.01, respectively.

As for `CN(C)C[C@@H](CC(=O)O)NC(=O)CCCCCCCCCc1ccccc1` [Example 32, (R)-4-Dimethylamino-3-(10-phenyl-decanoylamino)-butyric acid], the pIC50 in experiment [1] is 5.15; in experiment [2], 6.84.

Turning to `CN(C)C[C@@H](CC(=O)O)NC(=O)CCCCCCCCCc1ccc(C(F)(F)F)cc1` [Example 40, (R)-4-Dimethylamino-3-[10-(4-trifluoromethyl-phenyl)-decanoylamino]-butyric acid], the pIC50 is 5.18 in experiment [1] and 7.36 in experiment [2].

As to `CN(C)C[C@@H](CC(=O)O)NC(=O)CCCCCCCCCc1ccc(F)cc1` [Example 34, (R)-4-Dimethylamino-3-[10-(4-fluoro-phenyl)-decanoylamino]-butyric acid], the pIC50 in experiment [1] was 5.36; in experiment [2] it was 6.91.

As for `CN(C)C[C@@H](CC(=O)O)NC(=O)NCCCCCCCCCc1ccccc1` [Example 63, (R)-4-Dimethylamino-3-[3-(9-phenyl-nonyl)-ureido]-butyric acid], the negative logarithm of the IC50 (pIC50) is 5.54 in experiment [1] and 6.48 in experiment [2].

Turning to `CN(C)C[C@@H](CC(=O)O)NC(=O)CCCCCCCOCc1cccc2ccccc12` [Example 12, (R)-4-Dimethylamino-3-[8-(naphthalen-1-ylmethoxy)-octanoylamino]-butyric acid], the negative logarithm of the IC50 (pIC50) in experiment [1] is < 5.00; in experiment [2], 6.52.

Turning to `CN(C)C[C@@H](CC(=O)O)NC(=O)CCCCCCCOCc1ccc(C(F)(F)F)cc1F` [Example 10, (R)-4-Dimethylamino-3-[8-(2-fluoro-4-trifluoromethyl-benzyloxy)-octanoylamino]-butyric acid], the pIC50 in experiment [1] was < 5.00; in experiment [2] it was 6.16.

Consider `CN(C)C[C@@H](CC(=O)O)NC(=O)CCCCCCCCCc1cccc(F)c1F` [Example 42, (R)-3-[10-(2,3-Difluoro-phenyl)-decanoylamino]-4-dimethylamino-butyric acid], for which the negative logarithm of the IC50 (pIC50) is 5.63 in experiment [1] and 7.66 in experiment [2].

Take `CN(C)C[C@@H](CC(=O)O)NC(=O)CCCCCCCCCc1cccc2ccccc12` [Example 39, (R)-4-Dimethylamino-3-(10-naphthalen-1-yl-decanoylamino)-butyric acid]: the negative logarithm of the IC50 (pIC50) in experiment [1] is < 5.00; in experiment [2] it was 8.52.

Turning to `COc1ccc(OCCCCCCCCC(=O)N[C@H](CC(=O)O)CN(C)C)cc1OC` [Example 26, (R)-3-[9-(3,4-Dimethoxy-phenoxy)-nonanoylamino]-4-dimethylamino-butyric acid], the pIC50 in experiment [1] is 5.94; in experiment [2] it was 6.40.

Take `CN(C)C[C@@H](CC(=O)O)NC(=O)CCCCCCCOCc1cc(F)ccc1F` [Example 2, (R)-3-[8-(2,5-Difluoro-benzyloxy)-octanoylamino]-4-dimethylamino-butyric acid]: the figures for the pIC50 in experiment [1] and in experiment [2] were < 5.00 and 5.46, respectively.

On to `COc1c(F)c(F)c(COCCCCCCCC(=O)N[C@H](CC(=O)O)CN(C)C)c(F)c1F` [Example 11, (R)-4-Dimethylamino-3-[8-(2,3,5,6-tetrafluoro-4-methoxy-benzyloxy)-octanoylamino]-butyric acid], for which the negative-log IC50 (pIC50) was < 5.00 in experiment [1] and 5.53 in experiment [2].

`CN(C)C[C@@H](CC(=O)O)NC(=O)CCCCCCCOCc1ccccc1F` [Example 13, (R)-4-Dimethylamino-3-[8-(2-fluoro-benzyloxy)-octanoylamino]-butyric acid]: the pIC50 in experiment [1] is < 5.00; in experiment [2], 5.58.

On to `CN(C)C[C@@H](CC(=O)O)NC(=O)CCCCCCCCCCCc1ccccc1` [Example 51, (R)-4-Dimethylamino-3-(12-phenyl-dodecanoylamino)-butyric acid], for which the results for the pIC50 in experiment [1] and in experiment [2] were 5.97 and 6.74, respectively.

In the case of `CN(C)C[C@@H](CC(=O)O)NC(=O)CCCCCCCOCc1ccc(F)cc1` [Example 15, (R)-4-Dimethylamino-3-[8-(4-fluoro-benzyloxy)-octanoylamino]-butyric acid], the pIC50 in experiment [1] was 5.18; in experiment [2] it was 5.69.

Turning to `Cc1cccc(C)c1CCCCCCCCCC(=O)N[C@H](CC(=O)O)CN(C)C` [Example 37, (R)-4-Dimethylamino-3-[10-(2,6-dimethyl-phenyl)-decanoylamino]-butyric acid], the pIC50 in experiment [1] was < 5.00; in experiment [2], 6.62.

With `CN(C)C[C@@H](CC(=O)O)NC(=O)CCCCCCCCOc1ccc(F)c(F)c1F` [Example 24, (R)-4-Dimethylamino-3-[9-(2,3,4-trifluoro-phenoxy)-nonanoylamino]-butyric acid], the pIC50 in experiment [1] was 5.27; in experiment [2] it was 7.14.

On to `Cc1ccc(C)c(CCCCCCCCCC(=O)N[C@H](CC(=O)O)CN(C)C)c1` [Example 36, (R)-4-Dimethylamino-3-[10-(2,5-dimethyl-phenyl)-decanoylamino]-butyric acid], for which the pIC50 is < 5.00 in experiment [1] and 6.50 in experiment [2].

With `CN(C)C[C@@H](CC(=O)O)NC(=O)CCCCCCCOCc1ccc(C(F)(F)F)cc1` [Example 6, (R)-4-Dimethylamino-3-[8-(4-trifluoromethyl-benzyloxy)-octanoylamino]-butyric acid], the figures for the negative-log IC50 (pIC50) in experiment [1] and in experiment [2] were < 5.00 and 6.72, respectively.

As for `CN(C)C[C@@H](CC(=O)O)NC(=O)CCCCCCCCOc1ccccc1F` [Example 18, (R)-4-Dimethylamino-3-[9-(2-fluoro-phenoxy)-nonanoylamino]-butyric acid], the figures for the pIC50 in experiment [1] and in experiment [2] were < 5.00 and 6.34, respectively.

For `CN(C)C[C@@H](CC(=O)O)NC(=O)CCCCCCCCOc1ccc(F)cc1F` [Example 22, (R)-3-[9-(2,4-Difluoro-phenoxy)-nonanoylamino]-4-dimethylamino-butyric acid], the results for the pIC50 in experiment [1] and in experiment [2] were 5.06 and 6.57, respectively.

Turning to `COc1ccc(OCCCCCCCCC(=O)N[C@H](CC(=O)O)CN(C)C)cc1` [Example 28, (R)-4-Dimethylamino-3-[9-(4-methoxy-phenoxy)-nonanoylamino]-butyric acid], the figures for the pIC50 in experiment [1] and in experiment [2] were 5.26 and 7.82, respectively.

What is called pIC50 is the IC50 on a negative log10 scale, so that one unit is a factor of ten. Lower therefore signals a large IC50.
